Here are results for one compound from patent US20050281850A1, “Cosmetic/dermatological inverse emulsions containing calcitriol and clobetasol 17-propionate” (GALDERMA S.A., priority 2004, published 2005).

Common to all, as to type: physicochemical
A short description of data set [1]: Stability of calcitriol in ethanol (HPLC assay against reference substance). As to conditions: 30 ppm in absolute ethanol, 0.02% BHT. An excerpt:
a) Stability of Calcitriol in Ethanol: 30 ppm solution of calcitriol in qs 100% of absolute ethanol in the presence of 0.02% BHT. HPLC assay technique against reference substance. At the initial time (T0), it is considered that the composition comprises 100% calcitriol. Calcitriol concentration measured as % relative to T0: […]

Data set [2] in a line: Stability of calcitriol in Miglyol 812 (HPLC assay against reference substance). As to conditions: for Calcitriol concentration measured as % relative to T0: 30 ppm in Miglyol 812, 0.4% BHT. An excerpt:
b) Stability of Calcitriol in Miglyol 812 (Caprylic/-15 Capric Triglycerides) 30 ppm solution of calcitriol in qs 100% Miglyol 812 in the presence of 0.4% BHT. HPLC assay technique against reference substance. At the initial time (T0), it is considered that the composition comprises 100% calcitriol. Calcitriol concentration measured as % relative to T0: […]

Data set [3] can be described thus: Stability of calcitriol in Cetiol SN (HPLC assay against reference substance). As to conditions: for Calcitriol concentration measured as % relative to T0: 30 ppm in Cetiol SN, 0.4% BHT. An excerpt:
c) Stability of Calcitriol in Cetiol SN (Cetearyl Isononanoate): 30 ppm solution of calcitriol in qs 100% Cetiol SN (cetearyl isononanoate) in the presence of 0.4% BHT. HPLC assay technique against reference substance. At the initial time (T0), it is considered that the composition comprises 100% calcitriol. Calcitriol concentration measured as % relative to T0: […]

Take `C=C1/C(=C\C=C2/CCC[C@]3(C)[C@@H]([C@H](C)CCCC(C)(C)O)CC[C@@H]23)C[C@@H](O)C[C@@H]1O` [calcitriol]: the “Calcitriol concentration measured as % relative to T0” value amounted to 97.7% in data set [1] (+4° C., T1 week); 98.6% in data set [1] (+4° C., T2 weeks); 98.1% in data set [1] (+4° C., T3 weeks); 97.7% in data set [1] (+4° C., T4 weeks); 93.4% in data set [1] (+30° C., T2 weeks); 93.0% in data set [1] (+30° C., T4 weeks). In addition, the “Calcitriol concentration measured as % relative to T0” value was found to be 100.9% in data set [1] (−18° C., T1 week); 100.5% in data set [1] (−18° C., T2 weeks); 99.5% in data set [1] (−18° C., T3 weeks); 99.5% in data set [1] (−18° C., T4 weeks); 98.3% in data set [2] (+4° C., T2 weeks); 105.2% in data set [2] (+4° C., T4 weeks). Further, the “Calcitriol concentration measured as % relative to T0” value was determined as 91% in data set [2] (+40° C., T2 weeks); 93.8% in data set [2] (+40° C., T4 weeks); 95.1% in data set [2] (RT, T2 weeks); 98.0% in data set [2] (RT, T4 weeks); 98.6% in data set [3] (+4° C., T2 weeks); 98.1% in data set [3] (+4° C., T4 weeks). For the same compound, the “Calcitriol concentration measured as % relative to T0” value came out at 99.0% in data set [3] (+40° C., T2 weeks); 98.9% in data set [3] (+40° C., T4 weeks); 98.7% in data set [3] (RT, T2 weeks); 98.4% in data set [3] (RT, T4 weeks). Further, in data set [2] (in Miglyol 812), the “Stability of calcitriol in Miglyol 812 (in words)” value is given as “good stability”. Besides, the “Stability of calcitriol in Cetiol SN (in words)” value in data set [3] (in Cetiol SN) was “good stability”.
